In test [1] the test system is TNF-α. Description: Ultraviolet B-induced TNF-alpha production by human keratinocytes (HEKn cells), TNF-α ELISA. In kind it is cell-based. As to conditions: HEKn cells treated 4 hours at 0.1 μM. The procedure:
Cutaneous lupus patients often experience disease exacerbation when exposed to ultraviolet (UV) light. This is thought to be due to UVB-induced TNF-α production by keratinocytes. […] In vitro study for cutaneous lupus was performed to investigate how the compounds of the invention affect TNF-α production in keratinocytes.
Human neonatal foreskin epidermal keratinocytes (HEKn cells) were obtained from Cascade Biologics and were grown in serum-free medium supplemented with growth factors. When cells reached 80% confluency, they were trypsinized and plated at 1×10^5 cells/well in 6 well dishes. Plates were incubated for 24 hours to allow cell adhesion. To optimize conditions for the release of TNF-α, cells were treated with various degrees of exposure to UVB radiation (1, 4 and 24 hours). Supernatants were then collected and tested in the TNF-α ELISA.
Supernatants were collected and tested in the TNF-α ELISA at 1 Hour (bars with no pattern), 4 Hours (lined bars), or 24 Hours (checkered bars) after exposure. Results are the average of two experiments. The results shown in FIG. 7 indicate that supernatants collected 24 hours after HEKn cells were exposed to UVB had the highest levels of TNF-α. After exposure to 10, 50, or 100 mJ/cm^2, cells remained attached to the wells and no cell damage was observed. The 300 mJ/cm^2 UVB exposure was too high for the HEKn cells and many cells were damaged and detached from the bottom of the wells.
Cells were treated for 4 hours with (+)-2-[1-(3-ethoxy-4-methoxyphenyl)-2-methylsulfonylethyl]-4-acetylaminoisoindoline-1,3-dione (compound named 10004), or cyclopropyl {2-[(1S)-1-(3-ethoxy-4-methoxyphenyl)-2-(methylsulfonyl)ethyl]-3-oxoisoindolin-4-yl}carboxamide (compound named 11050) at 0.1 μM, 1 μM, or 10 μM. Medium was aspirated the cells washed and then exposed to 50 mJ/cm^2 UVB radiation. Fresh medium was added and the cells were incubated for 24 hours. Supernatents were removed and tested in the TNF-α ELISA kit from Pierce Biotechnology. […] (FIG. 8). […] (FIG. 8).
In other experiments, cells were treated for 4 hours with 3-(4-amino-1-oxo-1,3-dihydro-isoindol-2-yl)-piperidine-2,6-dione (compound named 5013), (+)-2-[1-(3-ethoxy-4-methoxyphenyl)-2-methylsulfonylethyl]-4-acetylaminoisoindoline-1,3-dione (compound named 10004) or compound named 16057, at 0.1 μM or 1 μM. […] (FIG. 9). […] (FIG. 9).
In general terms: In an ELISA, binding on a coated surface is turned into a signal by an enzyme label.

In test [2] the test system is E-Selectin. Description: HUVEC cell surface expression of E-Selectin by flow cytometry. The test is classed as cell-based, Human. The settings on record: 10 μM; for inhibition of TNF-α-induced E-Selectin expression: TNF-α (1 ng/ml) stimulated, FIG. 3. The method, then: (§1) A) Materials. Human Umbilical Vein Endothelial Cells (HUVEC) sent from LifeBank, were tested in Experiments A-K with several adhesion molecules. The adhesion molecules tested were CD51/CD61FITC (obtained from BD PharMingen, San Diego, Calif.; Catalog No. 555505), ICAM-1 PE also known as CD54 (obtained from BD PharMingen, San Diego, Calif.; Catalog No. 555511), ICAM-2 also known as CD102 (obtained from Research Diagnostics Inc., Concord, Mass.; Catalog No. RDI-CBL539FT), VCAM-1 (obtained from BD PharMingen, San Diego, Calif.; Catalog No. 555647), P-Selectin FITC (obtained from R&D Systems, Inc., Minneapolis, Minn.; Catalog No. BBA34), E-Selectin FITC (obtained from R&D Systems, Inc., Minneapolis, Minn.; Catalog No. BBA21), HLA Class I FITC (obtained from BD PharMingen, San Diego, Calif.; Catalog No. 555553), HLA Class II PE (obtained from BD PharMingen, San Diego, Calif.; Catalog No. 555558), CD44 FITC (obtained from BD PharMingen, San Diego, Calif.; Catalog No. 347943), CD144 (Cadherin VE) (obtained from CHEMICON International, Inc., Temecula, Calif.; Catalog No. MAB1989), IgG2a FITC (obtained from BD PharMingen, San Diego, Calif.; Cat #556652), Ms IgG2a (obtained from CHEMICON International, Inc., Temecula, Calif.; Cat. No. PP102), IgG1 FITC (obtained from BD PharMingen, San Diego, Calif.; Cat. No. 349041) and IgG1 PE (obtained from BD PharMingen, San Diego, Calif.; Cat. No. 349043).
(§2) Compound (1) ((+)-2-[1-(3-ethoxy-4-methoxyphenyl)-2-methylsulfonylethyl]-4-acetylaminoisoindoline-1,3-dione) and Compound (2) (4-(amino)-2-(2,6-dioxo(3-piperidyl))-isoindoline-1,3-dione) were obtained according to the preparation procedures disclosed herein. 16,16-Dimethyl-PGE2 (hereinafter PGE2) was obtained from BIOMOL International, L.P. (Plymouth Meeting, Pa.; Catalog No. PG-021). TNF-αwas obtained from Pierce Biotechnology (Rockford, Ill.; Catalog No. RTNFA 10).
(§3) B) Methods. HUVEC's were plated on 6-well plates at a concentration of 1×10^5 cells/well in 3 ml EBM® endothelial basal media (obtained from Cambrex Corporation, East Rutherford, N.J.; Catalog No. CC-3121) and singlequots (obtained from Cambrex Corporation, East Rutherford, N.J.; Catalog No. CC-4133). The cells were incubated overnight in a 37° C. and 5% CO2 humidified incubator to allow cells to attach. The old media was removed in next day and replaced with 3 ml fresh EBM® endothelial basal media. Then, samples of 3 μl of 10 mM of Compound (1), Compound (2), PGE2 and a mixture of Compound (1) and PGE2 were added separately to each well of the plates in duplicate to give a final concentration of 10 μM. An unstimulated DMSO control and a TNF-α-stimulated control were also added in duplicate. The plates were incubated in a 37° C. and 5% CO2 humidified incubator for 1 hr. […] The plates were incubated overnight in a 37° C. and 5% CO2 humidified incubator. The cells were also tested without TNF-α. The media was removed in the next day and each well was washed with 3 ml of phosphate buffered saline (PBS). Then, 3 ml of PBS containing 1 mM of EDTA (ethylenediaminetetraacetate) was added to each well to allow the cells to detach. Once the cells detached, they were gently scraped and placed in 4.5 ml Falcon tubes. The tubes were then centrifuged at 1200 RPM for 8 minutes at 4° C. The supernatant was carefully removed. Next, 50 μl of PBS-FACS buffer (5% fetal bovine serum (FBS), 0.02% sodium azide in PBS) and 20 μl of antibodies were added to all tubes as follows:
(§4) After the antibodies were added, the tubes were incubated on ice for 30 minutes and covered with foil. Then, the tubes were centrifuged at 1200 RPM for 8 minutes at 4° C. The supernatant was carefully removed. The cells were re-suspended in 2 ml of PBS-FACS buffer and centrifuged again as above. The supernatant was carefully removed again and the cells were re-suspended in 500 μl of PBS-FACS buffer. The tubes were then analyzed using a flow cytometer. […]
A general note: A flow cytometer gives signals particle by particle.

In test [3] the test system is CD44. The experiment in a line: HUVEC cell surface expression of CD44 by flow cytometry. The test is classed as cell-based, Human. The settings on record: 10 μM, FIG. 4. The procedure: as §1, §2
(§5) B) Methods. […]

Test [4] relates to VE-Cadherin. Description: HUVEC cell surface expression of VE-Cadherin (CD144) by flow cytometry. In kind it is cell-based, Human. The settings on record: 10 μM, FIG. 4. The method, then:
as §1, §2, §5

The test system of test [5] is VCAM. Description: HUVEC cell surface expression of VCAM by flow cytometry. The test is classed as cell-based, Human. As to conditions: TNF-α stimulated, 10 μM, FIG. 5. The procedure: A) Materials. Human Umbilical Vein Endothelial Cells (HUVEC) sent from LifeBank, were tested in Experiments A-K with several adhesion molecules. […]
Test [6] has as its system CD51/61. Description: HUVEC cell surface expression of CD51/61 by flow cytometry. The test is classed as cell-based, Human. The settings on record: unstimulated, 10 μM, FIG. 1. The procedure:
as §1, §2, §5

Test [7] relates to E-Selectin. The experiment in a line: E-Selectin cell surface expression in HUVEC detected by ELISA. As to conditions: HUVEC, 0.25, 0.5 and 1 ng/ml of TNF-α, 10 μM, FIG. 6. The test is classed as cell-based, Human. An excerpt:
In this assay, the mixture of Compound (1) and PGE2 appeared to work synergistically.

Test [8] deals with P-Selectin. The experiment in a line: HUVEC cell surface expression of P-Selectin by flow cytometry. As to conditions: 10 μM. In kind it is cell-based, Human. The method, then: as §1, §2, §3, §4

Each structure is given as a SMILES string. A value given as a limit tells only on which side of the number the result lay.

On to `CCOc1cc([C@@H](CS(C)(=O)=O)N2Cc3cccc(NC(=O)C4CC4)c3C2=O)ccc1OC` [Compound 11050, cyclopropyl {2-[(1S)-1-(3-ethoxy-4-methoxyphenyl)-2-(methylsulfonyl)ethyl]-3-oxoisoindolin-4-yl}carboxamide], for which the “levels of TNF-α released after UVB exposure” value in test [1] (1 μM, or 10 μM, 50 mJ/cm^2 UVB, 24 hours, FIG. 8) is “dose dependent decrease”.
On to `CCCCC(C)(C)[C@H](O)/C=C/[C@H]1[C@H](O)CC(=O)[C@@H]1C/C=C\CCCC(=O)O` [PGE2, 16,16-Dimethyl-PGE2, reference compound], for which, in test [2], the “inhibition of TNF-α-induced E-Selectin expression” value stood at 50%. In addition, the “cell surface expression of E-Selectin” value in test [2] (TNF-α stimulated, FIG. 5) was “significantly decreased”. Also, the “TNF-α-stimulated cell surface expression of CD44” value in test [3] is “no detectable effects”. Further, in test [4], the “TNF-α-stimulated cell surface expression of VE-Cadherin” value is “unaffected”. In test [5], the “cell surface expression of VCAM” value is recorded as “significantly decreased”. Also, the “reduction in the CD51/61 cell surface expression” value in test [6] is reported as 20%.
As for `Nc1cccc2c1CN(C1CCC(=O)NC1=O)C2=O` (centres unmarked) [Compound 5013, 3-(4-amino-1-oxo-1,3-dihydro-isoindol-2-yl)-piperidine-2,6-dione], in test [1] (UVB, FIG. 9), the “TNF-α levels after UVB exposure with the 0.1 μM treatment” value is on record as “TNF-α levels lower than cells not treated with radiation”.
For the compound `Nc1cccc2c1C(=O)N(C1CCC(=O)NC1=O)C2=O` (centres unmarked) [Compound (2), 4-(amino)-2-(2,6-dioxo(3-piperidyl))-isoindoline-1,3-dione], the “inhibition of TNF-α-induced E-Selectin expression” value in test [2] is on record as “approximately 20%”. The “E-Selectin cell surface expression” value in test [2] (unstimulated, FIG. 2) was “inhibited”. Further, the “inhibition of TNF-α-stimulated cell surface expression of CD44” value in test [3] is listed as “approximately 30%”. For the same compound, the “TNF-α-stimulated E-Selectin cell surface expression (ELISA)” value in test [7] is “inhibitory effect”. In addition, the “TNF-α-stimulated cell surface expression of VE-Cadherin” value in test [4] is reported as “unaffected”. Also, the “increase of TNF-α-induced cell expression of P-Selectin above baseline” value in test [8] (TNF-α (1 ng/ml) stimulated, FIG. 3) is given as above 2 fold. Also, the “increase of P-Selectin expression” value in test [8] (TNF-α stimulated, FIG. 5) is around 2 fold. In test [8] (unstimulated, FIG. 2), the “inhibition of P-Selectin expression” value is listed as around 35%. The “CD51/61 cell surface expression compared to untreated conditions” value in test [6] is “unaffected”.

The values above are taken from patent US20110104144A1, “METHODS FOR TREATING CUTANEOUS LUPUS USING AMINOISOINDOLINE COMPOUNDS” (CELGENE CORPORATION, priority 2005, published 2011).
